Assay results reported in US20020137929A1, “1 - (3-heterocyclylphenyl) isothiourea, -isourea, -guanidine and -amidine herbicidal agents” (Intellectual Property Department, BASF Aktiengesellschaft, priority 1998, published 2002).

Tests used:
[1] = test system: SETVI (Foxtail, Green); test: Preemergence herbicidal evaluation; assay type: in vivo, Setaria viridis; details: rated 4-5 weeks after treatment
How it was run: (§1)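 In this greenhouse assay, monocot and dicot seeds are planted in soil and treated prior to emergence with an aqueous acetone spray (about 0.0156-0.500 kg/ha). Plants are assessed visually against control on a 0-9 scale after 4-5 weeks.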

[2] = test system: SAGPY (Arrowhead (Pygmaea)); test: Preemergence weed control under flooded paddy conditions; assay type: in vivo, Sagittaria pygmaea; details: rated 3-4 weeks after treatment
How it was run: (§2)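 Flooded-pot preemergence screen with silt loam and seeds in the upper 0.5 cm. Dose about 0.0313 to 0.500 kg/ha, delivered into flood water; visual 0-9 score after 3 to 4 weeks.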

[3] = test system: ECHORC (Watergrass (Calif.)); test: Postemergence weed control under flooded paddy conditions; assay type: in vivo, Echinochloa oryzoides; details: postemergence weeds, rated 3 to 4 weeks after treatment
How it was run: (§3)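 With weeds 3 to 5 cm tall and rice at the 1.5 to 2.5 leaf stage, containers were flooded and water held 1.5 to 3 cm above soil. Compounds in 50/50 v/v aqueous/acetone went into the flood water at about 0.0313 to 0.500 kg/ha a.i. Effects were visually rated 0–9 against controls after three to four weeks in the greenhouse.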

[4] = test system: GALAP (Galium); test: Postemergence herbicidal evaluation; assay type: in vivo, Galium aparine; details: postemergence
How it was run: (§4)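 Rate range approx. 0.0156–0.500 kg/ha. Foliar application at 40 psi to ~2-week seedlings; surfactant 0.5% TWEEN 20 in 50/50 acetone/water. Evaluation 4–5 wk post-treatment by 0–9 visual injury score, means of replicate tests.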

[5] = test system: AMBEL (Ragweed, Common); test: Postemergence herbicidal evaluation; assay type: in vivo, Ambrosia artemisifolia; details: postemergence
How it was run: as §4

[6] = test system: ORYSAT (Rice, Tebonnet); test: Preemergence herbicidal evaluation; assay type: in vivo, Oryza sativa, (L.) Tebonnet; details: rated 4-5 weeks after treatment
How it was run: as §1

[7] = test system: CYPSE (Flatsedge); test: Preemergence weed control under flooded paddy conditions; assay type: in vivo, Cyperus serotinus; details: rated 3-4 weeks after treatment
How it was run: as §2

[8] = test system: TRZAWR (Wheat, Winter, cv Riband); test: Postemergence herbicidal evaluation; assay type: in vivo, Triticum aestivum; details: postemergence
How it was run: as §4

[9] = test system: SAGPY (Arrowhead (Pygmaea)); test: Postemergence weed control under flooded paddy conditions; assay type: in vivo, Sagittaria pygmaea; details: postemergence weeds, rated 3 to 4 weeks after treatment
How it was run: as §3

[10] = test system: CASOB (Sicklepod); test: Postemergence herbicidal evaluation; assay type: in vivo, Cassia obtusifolia; details: postemergence
How it was run: as §4

[11] = test system: ECHORC (Watergrass (Calif.)); test: Preemergence weed control under flooded paddy conditions; assay type: in vivo, Echinochloa oryzoides; details: rated 3-4 weeks after treatment
How it was run: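 Silt loam, seeds in top 0.5 cm; flood held 1.5-3 cm; test cpd as acetone/water 50/50 into flood water, ~0.0313-0.500 kg/ha a.i.; greenhouse 3-4 wk; visual 0-9 score vs control.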

[12] = test system: GLXMAW (Soybean, Williams); test: Postemergence herbicidal evaluation; assay type: in vivo, Glycine max, (L.) Merr. cv Williams; details: postemergence
How it was run: as §4

[13] = test system: GALAP (Galium); test: Preemergence herbicidal evaluation; assay type: in vivo, Galium aparine; details: rated 4-5 weeks after treatment
How it was run: as §1

Structure (SMILES): COC(=O)[C@@H](Cc1ccccc1)N1C(=O)CSC1=Nc1cc(-n2c(=O)cc(C(F)(F)F)n(C)c2=O)c(F)cc1Cl [Compound 74, Methyl α-benzyl-2-{{2-chloro-5-[3,6-dihydro-3-methyl-2,6-dioxo-4-(trifluoromethyl)-1(2H)-pyrimidinyl]-4-fluorophenyl}imino}-4-oxo-3-thiazolidineacetate, D-]
- Preemergence herbicidal rating SETVI ([1]; rate 0.0156 kg/ha): 0.0
- Preemergence herbicidal rating SETVI ([1]; rate 0.0313 kg/ha): 0.0
- Preemergence herbicidal rating SETVI ([1]; rate 0.0625 kg/ha): 1.0
- Preemergence herbicidal rating SETVI ([1]; rate 0.1250 kg/ha): 4.0
- Preemergence herbicidal rating SETVI ([1]; rate 0.2500 kg/ha): 9.0
- SAGPY herbicidal effect rating ([2]; 0.0313 kg/ha): 3.0
- SAGPY herbicidal effect rating ([2]; 0.0625 kg/ha): 3.0
- SAGPY herbicidal effect rating ([2]; 0.1250 kg/ha): 3.0
- SAGPY herbicidal effect rating ([2]; 0.2500 kg/ha): 9.0
- Herbicidal rating ECHORC ([3]; Rate 0.0313 kg/ha): 7.0
- Herbicidal rating ECHORC ([3]; Rate 0.0625 kg/ha): 9.0
- Herbicidal rating ECHORC ([3]; Rate 0.1250 kg/ha): 9.0
- Herbicidal rating ECHORC ([3]; Rate 0.2500 kg/ha): 9.0
- GALAP herbicidal rating ([4]; rate 0.0158 kg/ha): 1.0
- GALAP herbicidal rating ([4]; rate 0.0315 kg/ha): 4.0
- GALAP herbicidal rating ([4]; rate 0.0630 kg/ha): 9.0
- AMBEL herbicidal rating ([5]; rate 0.0158 kg/ha): 9.0
- AMBEL herbicidal rating ([5]; rate 0.0315 kg/ha): 9.0
- AMBEL herbicidal rating ([5]; rate 0.0630 kg/ha): 9.0
- Preemergence herbicidal rating ORYSAT ([6]; rate 0.0156 kg/ha): 0.0
- Preemergence herbicidal rating ORYSAT ([6]; rate 0.0313 kg/ha): 0.0
- Preemergence herbicidal rating ORYSAT ([6]; rate 0.0625 kg/ha): 1.0
- Preemergence herbicidal rating ORYSAT ([6]; rate 0.1250 kg/ha): 1.0
- Preemergence herbicidal rating ORYSAT ([6]; rate 0.2500 kg/ha): 1.0
- CYPSE herbicidal effect rating ([7]; 0.0313 kg/ha): 0.0
- CYPSE herbicidal effect rating ([7]; 0.0625 kg/ha): 5.0
- CYPSE herbicidal effect rating ([7]; 0.1250 kg/ha): 5.0
- CYPSE herbicidal effect rating ([7]; 0.2500 kg/ha): 9.0
- TRZAWR herbicidal rating ([8]; rate 0.0158 kg/ha): 3.5
- TRZAWR herbicidal rating ([8]; rate 0.0315 kg/ha): 4.5
- TRZAWR herbicidal rating ([8]; rate 0.0630 kg/ha): 6.0
- Herbicidal rating SAGPY ([9]; Rate 0.0313 kg/ha): 3.0
- Herbicidal rating SAGPY ([9]; Rate 0.0625 kg/ha): 3.0
- Herbicidal rating SAGPY ([9]; Rate 0.1250 kg/ha): 3.0
- Herbicidal rating SAGPY ([9]; Rate 0.2500 kg/ha): 9.0
- CASOB herbicidal rating ([10]; rate 0.0158 kg/ha): 3.0
- CASOB herbicidal rating ([10]; rate 0.0315 kg/ha): 4.0
- CASOB herbicidal rating ([10]; rate 0.0630 kg/ha): 9.0
- ECHORC herbicidal effect rating ([11]; 0.0313 kg/ha): 7.0
- ECHORC herbicidal effect rating ([11]; 0.0625 kg/ha): 9.0
- ECHORC herbicidal effect rating ([11]; 0.1250 kg/ha): 9.0
- ECHORC herbicidal effect rating ([11]; 0.2500 kg/ha): 9.0
- GLXMAW herbicidal rating ([12]; rate 0.0158 kg/ha): 5.5
- GLXMAW herbicidal rating ([12]; rate 0.0315 kg/ha): 5.0
- GLXMAW herbicidal rating ([12]; rate 0.0630 kg/ha): 6.5
- Preemergence herbicidal rating GALAP ([13]; rate 0.0156 kg/ha): 0.0
- Preemergence herbicidal rating GALAP ([13]; rate 0.0313 kg/ha): 0.0
- Preemergence herbicidal rating GALAP ([13]; rate 0.0625 kg/ha): 0.0
- Preemergence herbicidal rating GALAP ([13]; rate 0.1250 kg/ha): 0.0
- Preemergence herbicidal rating GALAP ([13]; rate 0.2500 kg/ha): 9.0
